For 7 molecules, MTC, PC50 and CC50 results are on record in ChEMBL document CHEMBL1133342, “A convenient extension of the Wessely-Moser rearrangement for the synthesis of substituted alkylaminoflavones as neuroprotective agents in vitro” (Bioorg Med Chem Lett, 2000).

Molecules are shown by their SMILES.

Data set [1] can be described thus: Maximum tolerated concentration in vitro against murine HT-22 hippocampal cell cultures by LDH assay. The data set is classed as functional, Mus musculus, Hippocampus.
Data set [2] is described as follows: Maximum tolerated concentration in vitro against murine HT-22 hippocampal cell cultures by MTT reduction assay. Format: functional, Mus musculus, Hippocampus.
Data set [3] can be described thus: Compound was tested in vitro for neuroprotective activity against L-homocysteic acid cytotoxicity in murine HT-22 hippocampal cell cultures by LDH assay. The data set is classed as functional, Mus musculus, Hippocampus.
The nature of data set [4]: Compound was tested in vitro for neuroprotective activity against L-homocysteic acid cytotoxicity in murine HT-22 hippocampal cell cultures by MTT reduction assay. Format: functional, Mus musculus, Hippocampus. In general terms: Formazan colour is commonly taken as a measure of viable cells.
Data set [5] in a line: Compound was tested in vitro for intrinsic neurotoxicity against murine HT-22 hippocampal cell cultures by LDH assay. To be noted: mouse, HT-22 hippocampal cells; read-out: TC50 (the source's name). The arrangement: species or system Hippocampus.
Data set [6] is described as follows: Compound was tested in vitro for intrinsic neurotoxicity against murine HT-22 hippocampal cell cultures by MTT reduction assay. Particulars: mouse, HT-22 hippocampal cells; read-out: TC50 (the source's name). The arrangement: species or system Hippocampus.

On to `CC(C)CCNc1c(O)cc2oc(-c3ccccc3)cc(=O)c2c1O`, for which the MTC is 100 µM in data set [1] and 5 µM in data set [2]. The PC50 in data set [3] and in data set [4] was 5.2 µM each time. Besides, the CC50 in data set [5] worked out at 116 µM; in data set [6] it was 16 µM.
On to `CCCNc1c(O)cc(O)c2c(=O)cc(-c3ccccc3)oc12`, for which the MTC stood at 25 µM in data set [1] and 5 µM in data set [2]. The PC50 in data set [3] stood at 8 µM; in data set [4], 7 µM. The CC50 came to 28 µM in data set [5] and 14 µM in data set [6].
As to `C=CCNc1c(O)cc(O)c2c(=O)cc(-c3ccccc3)oc12`, the MTC in data set [1] stood at 10 µM; in data set [2] it was 5 µM. Also, the PC50 is more than 10 µM in data set [3] and more than 5 µM in data set [4]. Besides, the results for the CC50 in data set [5] and in data set [6] were 11 µM and 18 µM, respectively.
On to `CC(C)Nc1c(O)cc2oc(-c3ccccc3)cc(=O)c2c1O`, for which the results for the MTC in data set [1] and in data set [2] were 100 µM and 10 µM, respectively. Besides, the results for the PC50 in data set [3] and in data set [4] were 6.6 µM and 5.1 µM, respectively. Also, the CC50 in data set [5] was 152 µM; in data set [6] it was 18 µM.
For `CC(C)CCNc1c(O)cc(O)c2c(=O)cc(-c3ccccc3)oc12`, the MTC in data set [1] and in data set [2] was 10 µM in each case. For the same molecule, the PC50 was 5.5 µM in data set [3] and 5.3 µM in data set [4]. In addition, the CC50 in data set [5] worked out at 16 µM; in data set [6], 12 µM.
Take `CC(C)CNc1c(O)cc(O)c2c(=O)cc(-c3ccccc3)oc12`: the MTC in data set [1] and in data set [2] was 10 µM each time. The PC50 stood at 4.2 µM in data set [3] and 4.6 µM in data set [4]. The CC50 in data set [5] and in data set [6] was 12 µM each time.
`CCCNc1c(O)cc2oc(-c3ccccc3)cc(=O)c2c1O`: the MTC in data set [1] turned out to be 100 µM; in data set [2], 5 µM. Moreover, the PC50 in data set [3] is 5.5 µM; in data set [4], 5.2 µM. Also, the CC50 was 176 µM in data set [5] and 10 µM in data set [6].
